Results: article PMC7354843 (Journal of medicinal chemistry, 2020)

Assay: In vivo pharmacokinetic study, plasma and liver, single oral dose in mice
Conditions: male, ICR, mouse, plasma, 80 mg/kg

Question: For `O=c1c2ccc(Oc3ccc(OC(F)(F)F)cc3)cc2[nH]c2cc(Cl)cc(F)c12` [Compound 26, 3-Chloro-1-fluoro-6-(4-(trifluoromethoxy)phenoxy)acridin-9(10H)-one], which AUC(0-inf) is on record?
Answer: 508 ng·h/mL

Question: And the Cmax?
Answer: 17.2 ng/mL
